Measurements taken from patent publication US20010036952A1, “Small molecule pipecolic acid derivative hair growth compositions and uses” (GPI NIL Holdings, Inc., priority 1997, published 2001).

System: hair growth
Test: not given
Settings: topical, but not oral, application; cited from earlier work

| Compound | stimulation of hair growth (in words) |
| --- | --- |
| C=CC[C@@H]1/C=C(\C)C[C@H](C)C[C@H](OC)[C@H]2O[C@@](O)(C(=O)C(=O)N3CCCC[C@H]3C(=O)O[C@H](/C(C)=C/[C@@H]3CC[C@@H](O)[C@H](OC)C3)[C@H](C)[C@@H](O)CC1=O)[C@H](C)C[C@@H]2OC [FK506] | stimulates hair growth in a dose-dependent manner |

Target: FKBP12 (Homo sapiens, UniProt P62942)
Sequence (P62942 whole entry, species assumed): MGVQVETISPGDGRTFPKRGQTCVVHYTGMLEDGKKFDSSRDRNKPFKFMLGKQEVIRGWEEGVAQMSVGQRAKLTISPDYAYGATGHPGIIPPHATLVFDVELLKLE
Test: Ki test procedure: inhibition of peptidyl-prolyl isomerase (rotamase) activity, chymotrypsin-coupled assay
Assay type: biochemical
Settings: FKBP rotamase, substrate N-succinyl-Ala-Ala-Pro-Phe-p-nitroanilide; read-out: Ki (apparent Ki, rotamase inhibition)
Source text: The inhibition of the prolyl peptidyl cis-trans isomerase activity of FKBP may be measured as an indicator of this affinity.
Inhibition of the peptidyl-prolyl isomerase (rotamase) activity of the compounds used in the inventive methods and pharmaceutical compositions can be evaluated by known methods described in the literature (Harding et al., Nature, 1989, 341:758-760; Holt et al. J. Am. Chem. Soc., 115:9923-9938).
The cis-trans isomerization of an alanine-proline bond in a model substrate, N-succinyl-Ala—Ala—Pro—Phe- p-nitroanilide, is monitored spectrophotometrically in a chymotrypsin-coupled assay, which releases para-nitroanilide from the trans form of the substrate. The inhibition of this reaction caused by the addition of different concentrations of inhibitor is determined, and the data is analyzed as a change in first-order rate constant as a function of inhibitor concentration to yield the apparent Ki values.
In a plastic cuvette are added […] of ice cold assay buffer (25 mM HEPES, pH 7.8, 100 mM NaCl), […] of FKBP (2.5 mM in 10 mM Tris-Cl pH 7.5, 100 mM NaCl, 1 mM dithiothreitol), […] of chymotrypsin (50 mg/ml in 1 mM HCl) and […] of test compound at various concentrations in dimethyl sulfoxide. The reaction is initiated by the addition of 5 mL of substrate (succinyl-Ala—Phe—Pro—Phe-para-nitroanilide, 5 mg/mL in 2.35 mM LiCl in trifluoroethanol).
The absorbance at 390 nm versus time is monitored for 90 seconds using a spectrophotometer and the rate constants are determined from the absorbance versus time data files.

| Compound | Ki |
| --- | --- |
| COc1cc(C(=O)C(=O)N2CCCCC2C(=O)OCCCCc2ccccc2)cc(OC)c1OC (centres unmarked) [Compound 23] | 19 nM |
| O=C(C(=O)N1CCCCC1C(=O)OCc1ccccc1)c1ccco1 (centres unmarked) [Compound 20] | 3000 nM |
| O=C(C(=O)N1CCCCC1C(=O)OCCCCC1CCCCC1)c1ccccc1 (centres unmarked) [Compound 15] | 400 nM |
| O=C(C(=O)N1CCCCC1C(=O)OCCc1ccccc1)c1ccccc1 (centres unmarked) [Compound 14] | 1100 nM |
| O=C(C(=O)N1CCCCC1C(=O)OCCCCc1ccccc1)c1ccccc1 (centres unmarked) [Compound 13] | 350 nM |
| O=C(C(=O)N1CCCCC1C(=O)OCc1ccccc1)c1ccccc1 (centres unmarked) [Compound 10] | 1500 nM |
| COC(=O)C(=O)N1CCCCC1C(=O)OCc1ccccc1 (centres unmarked) [Compound 16] | 80000 nM |
